# Tested on: MCF-7 breast cancer cells
# Test: Microarray gene expression analysis (Agilent whole human genome 4 x 44K; compound vs DMSO, LIMMA log2 fold change)
# Assay type: cell-based
# Details: Apoptosis genes
smiles,measurement,setting,value
Oc1cccc(-c2nc(N3CCOCC3)c3oc4ncccc4c3n2)c1 [PI-103],KALRN log2FC,Gene 8997,0.194
same,SOCS3 log2FC,Gene 9021,-0.840
same,BRSK2 log2FC,Gene 9024,-0.160
same,UBE2M log2FC,Gene 9040,-0.417
same,SART1 log2FC,Gene 9092,-0.00235
same,DNAJA3 log2FC,Gene 9093,0.121
same,RABEP1 log2FC,Gene 9135,0.492
same,ARHGEF2 log2FC,Gene 9181,-0.509
same,DEDD log2FC,Gene 9191,-0.033
same,AURKB log2FC,Gene 9212,-0.231
same,FAIM3 log2FC,Gene 9214,-0.530
same,DLG5 log2FC,Gene 9231,-0.212
same,PNMA1 log2FC,Gene 9240,0.459
same,NOG log2FC,Gene 9241,-0.308
same,CRLF1 log2FC,Gene 9244,0.144
same,STK17B log2FC,Gene 9262,0.429
same,STK17A log2FC,Gene 9263,0.011
same,BCL7C log2FC,Gene 9274,-0.197
same,TAOK2 log2FC,Gene 9344,-0.249
same,SLIT2 log2FC,Gene 9353,0.341
same,SLC9A3R1 log2FC,Gene 9368,-0.528
same,TJP2 log2FC,Gene 9414,0.196
same,NTN1 log2FC,Gene 9423,-0.198
same,ITM2B log2FC,Gene 9445,0.317
same,AIM2 log2FC,Gene 9447,-0.062
same,LY86 log2FC,Gene 9450,-0.203
same,EIF2AK3 log2FC,Gene 9451,0.495
same,HAND2 log2FC,Gene 9464,-0.691
same,ATG5 log2FC,Gene 9474,-0.728
same,ROCK2 log2FC,Gene 9475,0.195
same,MAPK8IP1 log2FC,Gene 9479,0.085
same,SLC25A27 log2FC,Gene 9481,-0.081
same,PSMF1 log2FC,Gene 9491,-0.344
same,LITAF log2FC,Gene 9516,-0.833
same,EEF1E1 log2FC,Gene 9521,0.110
same,BAG4 log2FC,Gene 9530,0.152
same,BAG3 log2FC,Gene 9531,-0.812
same,EI24 log2FC,Gene 9538,-0.583
same,BCAR1 log2FC,Gene 9564,-0.480
same,BRE log2FC,Gene 9577,-0.205
same,RNF7 log2FC,Gene 9616,-0.244
same,TRAF4 log2FC,Gene 9618,-0.924
same,AATK log2FC,Gene 9625,1.492
same,IKBKE log2FC,Gene 9641,-0.667
same,PPM1F log2FC,Gene 9647,-0.302
same,RAPGEF2 log2FC,Gene 9693,0.948
same,ESPL1 log2FC,Gene 9700,0.721
same,HERPUD1 log2FC,Gene 9709,0.170
same,SLK log2FC,Gene 9748,0.857
same,BCLAF1 log2FC,Gene 9774,0.632
same,KIAA0141 log2FC,Gene 9812,0.468
same,RB1CC1 log2FC,Gene 9821,1.484
same,ARHGEF11 log2FC,Gene 9826,-0.060
same,ARHGEF17 log2FC,Gene 9828,0.506
same,MELK log2FC,Gene 9833,0.254
same,PSMD6 log2FC,Gene 9861,0.158
same,ARNT2 log2FC,Gene 9915,0.025
same,THOC1 log2FC,Gene 9984,0.375
same,CASP8AP2 log2FC,Gene 9994,0.614
same,SRA1 log2FC,Gene 10011,-0.916
same,PDCD6IP log2FC,Gene 10015,0.603
same,PDCD6 log2FC,Gene 10016,-0.491
same,BCL2L11 log2FC,Gene 10018,0.088
same,PARP2 log2FC,Gene 10038,0.326
same,DNAJB6 log2FC,Gene 10049,0.183
same,DNM1L log2FC,Gene 10059,0.444
same,PDCD7 log2FC,Gene 10081,0.098
same,PPIF log2FC,Gene 10105,-1.136
same,FEM1B log2FC,Gene 10116,-0.374
same,BCAP31 log2FC,Gene 10134,-0.357
same,RBM5 log2FC,Gene 10181,0.638
same,RNF41 log2FC,Gene 10193,0.278
same,PSME3 log2FC,Gene 10197,-1.222
same,DHRS2 log2FC,Gene 10202,0.281
same,TOPORS log2FC,Gene 10210,0.598
same,PSMD14 log2FC,Gene 10213,0.153
same,SPRY2 log2FC,Gene 10253,-0.930
same,NET1 log2FC,Gene 10276,0.503
same,UBE4B log2FC,Gene 10277,-0.565
same,SAP18 log2FC,Gene 10284,0.198
same,TRAIP log2FC,Gene 10293,0.566
same,MAEA log2FC,Gene 10296,-0.106
same,PAK4 log2FC,Gene 10298,-0.420
same,RTN3 log2FC,Gene 10313,-0.192
same,CITED2 log2FC,Gene 10370,2.312
same,SEMA3A log2FC,Gene 10371,0.050
same,DLC1 log2FC,Gene 10395,-1.010
same,GNB2L1 log2FC,Gene 10399,-0.033
same,YAP1 log2FC,Gene 10413,0.172
same,CFDP1 log2FC,Gene 10428,0.411
same,C1D log2FC,Gene 10438,0.246
same,ACAA2 log2FC,Gene 10449,0.115
same,VAV3 log2FC,Gene 10451,2.272
same,STK25 log2FC,Gene 10494,0.213
same,SEMA4D log2FC,Gene 10507,0.274
same,MYBBP1A log2FC,Gene 10514,-0.303
same,CIB1 log2FC,Gene 10519,-0.082
same,ATG7 log2FC,Gene 10533,-0.414
same,HTATIP2 log2FC,Gene 10553,0.204
same,ERN2 log2FC,Gene 10595,-0.680
same,RBCK1 log2FC,Gene 10616,-0.315
same,STAMBP log2FC,Gene 10617,0.275
same,IVNS1ABP log2FC,Gene 10625,0.167
same,TXNIP log2FC,Gene 10628,2.206
same,RRAGA log2FC,Gene 10670,-0.315
same,PNMA2 log2FC,Gene 10687,-0.058
same,CHL1 log2FC,Gene 10752,0.036
same,NES log2FC,Gene 10763,-0.277
same,PLK2 log2FC,Gene 10769,-0.927
same,ZMYND11 log2FC,Gene 10771,0.395
same,NEK6 log2FC,Gene 10783,-0.675
same,NCKAP1 log2FC,Gene 10787,0.619
same,ZNF268 log2FC,Gene 10795,0.176
same,PPP1R13L log2FC,Gene 10848,0.642
same,LILRB1 log2FC,Gene 10859,-0.213
same,MRPS30 log2FC,Gene 10884,0.033
same,PROKR1 log2FC,Gene 10887,-0.254
same,PPARGC1A log2FC,Gene 10891,0.154
same,MALT1 log2FC,Gene 10892,-0.458
same,JTB log2FC,Gene 10899,-0.072
same,BLCAP log2FC,Gene 10904,-0.472
same,EDAR log2FC,Gene 10913,-0.571
same,RNPS1 log2FC,Gene 10921,-0.284
same,FASTK log2FC,Gene 10922,-0.187
same,PRDX3 log2FC,Gene 10935,0.328
same,MLLT11 log2FC,Gene 10962,-0.868
same,YWHAQ log2FC,Gene 10971,0.144
same,IL24 log2FC,Gene 11009,-0.212
same,RIPK3 log2FC,Gene 11035,-0.030
same,PIM2 log2FC,Gene 11040,-0.544
same,DIDO1 log2FC,Gene 11083,-0.398
same,FAF1 log2FC,Gene 11124,0.215
same,CAPN10 log2FC,Gene 11132,-0.148
same,NISCH log2FC,Gene 11188,0.538
same,CHEK2 log2FC,Gene 11200,0.111
same,AKAP13 log2FC,Gene 11214,-0.354
same,DDX20 log2FC,Gene 11218,0.280
same,PDCD10 log2FC,Gene 11235,0.466
same,GABARAP log2FC,Gene 11337,0.401
same,ATF5 log2FC,Gene 22809,-1.254
same,PHLDA1 log2FC,Gene 22822,-2.154
same,CARD8 log2FC,Gene 22900,0.156
same,SNW1 log2FC,Gene 22938,0.538
same,TRIM32 log2FC,Gene 22954,-0.315
same,ACIN1 log2FC,Gene 22985,-0.228
same,TRIM35 log2FC,Gene 23087,0.205
same,KIF1B log2FC,Gene 23095,0.163
same,PSME4 log2FC,Gene 23198,-0.072
same,ARHGEF9 log2FC,Gene 23229,0.137
same,PACS2 log2FC,Gene 23241,-0.041
same,MCF2L log2FC,Gene 23263,0.306
same,TRIM2 log2FC,Gene 23321,0.862
same,ARHGEF12 log2FC,Gene 23365,0.170
same,PPP1R13B log2FC,Gene 23368,0.064
same,NCSTN log2FC,Gene 23385,0.292
same,ADNP log2FC,Gene 23394,0.175
same,SIRT1 log2FC,Gene 23411,1.169
